# Test results: patent US12421211B2, “Heterocyclic compounds” (Hoffmann-La Roche Inc., priority 2021, dated 2025)
# Where a name gives a salt, the structure may show the parent alone.
# Test system: Acinetobacter baumannii ATCC17961
# Assay: Antimicrobial susceptibility testing: 90% growth inhibitory concentration (IC90) determination
# Type: cell-based
# Conditions: Acinetobacter baumannii, ATCC17961, 16 h, 90% growth inhibitory concentration, Acinetobacter baumannii ATCC17961, Iso-Sensitest broth, OD 600 nm over 16 h; read-out: ATCC 17961 IC90
# How it was run: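 Growth inhibition derived in log phase from OD600 kinetics (every 20 minutes, 16h, 35±2° C) of ATCC17961 in Iso-Sensitest medium, inoculum ~5×10^5 CFU/ml. Compounds tested as twofold series, 10 points (e.g. 50 to 0.097 μM final); IC90 and IC50 reported.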
row,Structure (SMILES),IC90 [nM]
1,"Cc1n[nH]cc1-c1ccc(-c2cnc(C(=O)Nc3ccc(C(=O)N4CCN(C(=O)CCC[N+](CC(=O)O)(CC5CNC5)CC5CNC5)CC4)c(Cl)c3)n2C)c(F)c1F [Example D42, bis(azetidin-3-ylmethyl)-(carboxymethyl)-[4-[4-[2-chloro-4-[[5-[2,3-difluoro-4-(3-methyl-1H-pyrazol-4-yl)phenyl]-1-methyl-imidazole-2-carbonyl]amino]benzoyl]piperazin-1-yl]-4-oxo-butyl]ammonium; formic acid; formate]",60
2,"Cc1nn(CCNC(=O)N2CCCC2)cc1-c1ccc(-c2cnc(C(=O)Nc3ccc(C(=O)N4CCN(C(=O)C5CC[N+](C)(C)CC5)CC4)c(Cl)c3)n2C)c(F)c1F [Example H8, N-[3-chloro-4-[4-(1,1-dimethylpiperidin-1-ium-4-carbonyl)piperazine-1-carbonyl]phenyl]-5-[2,3-difluoro-4-[3-methyl-1-[2-(pyrrolidine-1-carbonylamino)ethyl]pyrazol-4-yl]phenyl]-1-methyl-imidazole-2-carboxamide; formate]",540
3,"COc1cccc(Cn2cc(-c3ccc(-c4cnc(C(=O)Nc5ccc(C(=O)N6CCN(C(=O)C7CC[N+](C)(C)CC7)CC6)c(Cl)c5)n4C)c(F)c3F)c(C)n2)n1 [Example F55, N-[3-chloro-4-[4-(1,1-dimethylpiperidin-1-ium-4-carbonyl)piperazine-1-carbonyl]phenyl]-5-[2,3-difluoro-4-[1-[(6-methoxy-2-pyridyl)methyl]-3-methyl-pyrazol-4-yl]phenyl]-1-methyl-imidazole-2-carboxamide; formate]",270
4,"COCCn1ncc(-c2ccc(-c3cnc(C(=O)Nc4ccc(C(=O)N5CCN(C(=O)C6CC[N+](C)(C)CC6)CC5)c(Cl)c4)n3C)c(C)c2F)c1C [Example F3, N-[3-chloro-4-[4-(1,1-dimethylpiperidin-1-ium-4-carbonyl)piperazine-1-carbonyl]phenyl]-5-[3-fluoro-4-[1-(2-methoxyethyl)-5-methyl-pyrazol-4-yl]-2-methyl-phenyl]-1-methyl-imidazole-2-carboxamide; formate]",120
5,"Cn1c(-c2ccc(-c3c[nH]nc3C(F)(F)F)c(F)c2)cnc1C(=O)Nc1ccc(C(=O)N2CCN(C(=O)C3CCN(CC(N)=O)CC3)CC2)c(Cl)c1 [Example E12, N-[4-[4-[1-(2-amino-2-oxo-ethyl)piperidine-4-carbonyl]piperazine-1-carbonyl]-3-chloro-phenyl]-5-[3-fluoro-4-[3-(trifluoromethyl)-1H-pyrazol-4-yl]phenyl]-1-methyl-imidazole-2-carboxamide; 2,2,2-trifluoroacetic acid]",150
6,"COCCn1ncc(-c2ccc(-c3cnc(C(=O)Nc4ccc(C(=O)NCC5CCN(C(=O)CN(C)C)CC5)c(Cl)c4)n3C)c(F)c2F)c1C [Example D33, N-[3-chloro-4-[[1-[2-(dimethylamino)acetyl]-4-piperidyl]methylcarbamoyl]phenyl]-5-[2,3-difluoro-4-[1-(2-methoxyethyl)-5-methyl-pyrazol-4-yl]phenyl]-1-methyl-imidazole-2-carboxamide; 2,2,2-trifluoroacetic acid]",210
7,"COCCn1ncc(-c2ccc(-c3cnc(C(=O)Nc4ccc(C(=O)N5CCN(C(=O)C[C@@H]6CCNC6)CC5)c(Cl)c4)n3C)c(F)c2F)c1C [Example E2, N-[3-chloro-4-[4-[2-[(3S)-pyrrolidin-3-yl]acetyl]piperazine-1-carbonyl]phenyl]-5-[2,3-difluoro-4-[1-(2-methoxyethyl)-5-methyl-pyrazol-4-yl]phenyl]-1-methyl-imidazole-2-carboxamide; formic acid]",48
8,"COCCn1ncc(-c2ccc(-c3cnc(C(=O)Nc4ccc(C(=O)N5CCN(C(=O)C[N+]6(C)CCC(N)C6)CC5)c(Cl)c4)n3C)c(F)c2F)c1C (stereo not shown) [Example C2, N-[4-[4-[2-(3-amino-1-methyl-pyrrolidin-1-ium-1-yl)acetyl]piperazine-1-carbonyl]-3-chloro-phenyl]-5-[2,3-difluoro-4-[1-(2-methoxyethyl)-5-methyl-pyrazol-4-yl]phenyl]-1-methyl-imidazole-2-carboxamide; formic acid; formate]",41
9,"COCCn1ncc(-c2ccc(-c3cnc(C(=O)Nc4ccc(C(=O)N5CCN(C(=O)N6CC[N+](CC(=O)O)(CC7CNC7)CC6)CC5)c(Cl)c4)n3C)c(F)c2F)c1C [Example B38, 2-[1-(azetidin-3-ylmethyl)-4-[4-[2-chloro-4-[[5-[2,3-difluoro-4-[1-(2-methoxyethyl)-5-methyl-pyrazol-4-yl]phenyl]-1-methyl-imidazole-2-carbonyl]amino]benzoyl]piperazine-1-carbonyl]piperazin-1-ium-1-yl]acetic acid; formate]",300
10,"COCCn1ncc(-c2ccc(-c3cnc(C(=O)Nc4ccc(C(=O)N5CCN(C(=O)C6CCNCC6)CC5)c(Cl)c4)n3C)c(F)c2F)c1COC [Example E13, N-[3-chloro-4-[4-(piperidine-4-carbonyl)piperazine-1-carbonyl]phenyl]-5-[2,3-difluoro-4-[1-(2-methoxyethyl)-5-(methoxymethyl)pyrazol-4-yl]phenyl]-1-methyl-imidazole-2-carboxamide; formic acid]",380
11,"Cc1c(-c2ccc(-c3cnc(C(=O)Nc4ccc(C(=O)N5CCN(C(=O)[C@@H]6C[C@@H](O)C[N+]6(C)C)CC5)c(Cl)c4)n3C)c(F)c2F)cnn1CCC(C)(C)O [Example F4, N-[3-chloro-4-[4-[(2S,4R)-4-hydroxy-1,1-dimethyl-pyrrolidin-1-ium-2-carbonyl]piperazine-1-carbonyl]phenyl]-5-[2,3-difluoro-4-[1-(3-hydroxy-3-methyl-butyl)-5-methyl-pyrazol-4-yl]phenyl]-1-methyl-imidazole-2-carboxamide; formate]",830
12,"COCCn1cc(-c2ccc(-c3cnc(C(=O)Nc4ccc(C(=O)N5CCN(C(=O)C6CC[N+](C)(C)CC6)CC5)c(Cl)c4)n3C)c(F)c2F)c(N)n1 [Example F26, 5-[4-[3-amino-1-(2-methoxyethyl)pyrazol-4-yl]-2,3-difluoro-phenyl]-N-[3-chloro-4-[4-(1,1-dimethylpiperidin-1-ium-4-carbonyl)piperazine-1-carbonyl]phenyl]-1-methyl-imidazole-2-carboxamide; formate]",1400
13,"Cn1c(-c2ccc(-c3cn(CCS(C)(=O)=O)nc3C(F)(F)F)c(F)c2F)cnc1C(=O)Nc1ccc(C(=O)N2CCN(C(=O)C3CC[N+](C)(C)CC3)CC2)c(Cl)c1 [Example F32, N-[3-chloro-4-[4-(1,1-dimethylpiperidin-1-ium-4-carbonyl)piperazine-1-carbonyl]phenyl]-5-[2,3-difluoro-4-[1-(2-methylsulfonylethyl)-3-(trifluoro-methyl)pyrazol-4-yl]phenyl]-1-methyl-imidazole-2-carboxamide; formate]",580
14,"COCCn1ncc(-c2ccc(-c3cnc(C(=O)Nc4ccc(C(=O)N5CCC(C(=O)N6CC[N+](C)(C)CC6)CC5)c(Cl)c4)n3C)c(F)c2F)c1C [Example A10, N-[3-chloro-4-[4-(4,4-dimethylpiperazin-4-ium-1-carbonyl)piperidine-1-carbonyl]phenyl]-5-[2,3-difluoro-4-[1-(2-methoxyethyl)-5-methyl-pyrazol-4-yl]phenyl]-1-methyl-imidazole-2-carboxamide; formate]",98
15,"COCCn1ncc(-c2ccc(-c3cnc(C(=O)Nc4ccc(C(=O)N5CCN(C(=O)CN6CCCC6)CC5)c(Cl)c4)n3C)c(F)c2F)c1C [Example D28, N-[3-chloro-4-[4-(2-pyrrolidin-1-ylacetyl)piperazine-1-carbonyl]phenyl]-5-[2,3-difluoro-4-[1-(2-methoxyethyl)-5-methyl-pyrazol-4-yl]phenyl]-1-methyl-imidazole-2-carboxamide; 2,2,2-trifluoroacetic acid]",30
16,"COCCn1cc(-c2ccc(-c3cnc(C(=O)Nc4ccc(C(=O)N5CCN(C(=O)C6CC[N+](C)(C)CC6O)CC5)c(Cl)c4)n3C)c(F)c2F)c(C)n1 (stereo not shown) [Example D2, N-[3-chloro-4-[4-(3-hydroxy-1,1-dimethyl-piperidin-1-ium-4-carbonyl)piperazine-1-carbonyl]phenyl]-5-[2,3-difluoro-4-[1-(2-methoxyethyl)-3-methyl-pyrazol-4-yl]phenyl]-1-methyl-imidazole-2-carboxamide; formate]",210
17,"Cc1cc(N)cnc1-c1ccc(-c2cnc(C(=O)Nc3ccc(C(=O)N4CCN(C(=O)C5CC[N+](C)(C)CC5)CC4)c(Cl)c3)n2C)c(F)c1F [Example F64, 5-[4-(5-amino-3-methyl-2-pyridyl)-2,3-difluoro-phenyl]-N-[3-chloro-4-[4-(1,1-dimethylpiperidin-1-ium-4-carbonyl)piperazine-1-carbonyl]phenyl]-1-methyl-imidazole-2-carboxamide; formate]",250

# Same assay, conditions: Acinetobacter baumannii, ATCC17961, 16 h, read-out: ATCC 17961 IC90
row,Structure (SMILES),IC90 [nM]
1,"COCCn1ncc(-c2ccc(-c3cnc(C(=O)Nc4ccc(C(=O)N5CCN(C(=O)C6CC[N+](C)(CC(=O)NN)CC6)CC5)c(Cl)c4)n3C)c(F)c2F)c1C (stereo not shown) [Example B17, N-[3-chloro-4-[4-[1-(2-hydrazino-2-oxo-ethyl)-1-methyl-piperidin-1-ium-4-carbonyl]piperazine-1-carbonyl]phenyl]-5-[2,3-difluoro-4-[1-(2-methoxyethyl)-5-methyl-pyrazol-4-yl]phenyl]-1-methyl-imidazole-2-carboxamide; formic acid; formate]",260
2,"Cc1n[nH]c(C)c1-c1ccc(-c2cnc(C(=O)Nc3ccc(C(=O)N4CCN(C(=O)[C@@H]5C[C@@H](O)C[N+]5(C)C)CC4)c(Cl)c3)n2C)c(F)c1F [Example D43, N-[3-chloro-4-[4-[(2S,4R)-4-hydroxy-1,1-dimethyl-pyrrolidin-1-ium-2-carbonyl]piperazine-1-carbonyl]phenyl]-5-[4-(3,5-dimethyl-1H-pyrazol-4-yl)-2,3-difluoro-phenyl]-1-methyl-imidazole-2-carboxamide; formate]",810
